# Measurements published in US9155784B2, “Anti-TNF-α therapy for the mucopolysaccharidoses and other lysosomal disorders” (Icahn School of Medicine at Mount Sinai, priority 2011, dated 2015).
# Columns and labels:
# Format in all cases: in vivo, rat
# [1] = test system: TNF-α and RANKL; test: Serum immunoassays of TNF-α and RANKL in treated MPS VI rats; conditions: MPS VI rats treated 8 months i.v., end of study (37 weeks), vs untreated MPS VI
# Procedure: Naglazyme® (recombinant human N-acetylgalactosamine-4-sulfatase) was obtained from the BioMarin Pharmaceutical Inc., and CNTO1081 was from Centocor Ortho Biotech Inc. Twenty one-day-old (pre-symptomatic) MPS VI rats were divided into two groups (n=8/group), and subjected to either ERT or combined ERT/anti-TNF-α therapy. Animals receiving ERT alone were injected i.v. (tail vein) weekly with 1 mg/kg of Naglazyme®. Those receiving combined therapy also were injected i.v. with 3 mg/kg of CNTO10181 twice per week (every third day). Treatment was carried out for a total of 32 weeks. Serum was collected every 2 weeks for TNF-α and RANKL analysis (see infra). For each group, the treated animals were sacrificed 2 weeks after the last injection (37 weeks of age). Age-matched normal and untreated MPS VI rats were used as controls throughout the study.
# Serum TNF-α and RANKL in age-matched normal, untreated and treated MPS VI rats were assessed by immunoassays using rat ultrasensitive Biosource Elisa kits (Invitrogen and ALPCO Diagnostics) according to the manufacturers' protocols. All assays were performed in triplicate.
# Twenty one-day-old MPS VI rats were treated by either ERT (1 mg/kg once per week), or by a combined protocol of ERT and anti-TNF-α therapy (3 mg/kg, twice per week). Both were administered intravenously (tail vein). […]
# [2] = test system: articular chondrocytes; test: Immunoblot of articular chondrocytes from treated MPS VI rats; conditions: western blot, vs untreated MPS VI
# Description: Tracheas, femora, and tibias were collected from the control and treated MPS VI rats, and placed in either phosphate buffered saline for the isolation of fibroblast-like synoviocytes (FLS) and articular chondrocytes, or fixed in neutral buffered 10% formalin (Sigma Chemical) for histology, microCT analysis, and immunohistochemistry (see infra). The fixed bones were decalcified in 8% formic acid (Sigma Chemical) for 5 days, paraffin embedded, and sectioned (5 μm) for subsequent staining Primary FLS and articular chondrocyte cultures were established as previously described (Simonaro et al., “Joint and Bone Disease in Mucopolysaccharidosis VI and VII: Identification of New Therapeutic Targets and Biomarkers Using Animal Models,” Pediatr. Res. 57:701-707 (2005); Simonaro et al., “Mechanism of Glycosaminoglycan-Mediated Bone & Joint Disease: Implications for the Mucopolysaccharidoses & Other Connective Tissue Diseases,” Amer. J. Path. 172:112-122 (2008), both of which are hereby incorporated by reference in their entirety), and expression of inflammatory and apoptosis markers were assessed by western blotting.
# Articular chondrocytes from 37-week-old normal, untreated and treated MPS VI rats were collected using sequential enzyme digestion of cartilage, pelleted and lysed for immunoblot analysis as previously described (Simonaro et al., “Mechanism of Glycosaminoglycan-Mediated Bone & Joint Disease: Implications for the Mucopolysaccharidoses & Other Connective Tissue Diseases,” Amer. J. Path. 172:112-122 (2008), which is hereby incorporated by reference in its entirety). The membranes were incubated with rabbit polyclonal anti-collagen type IIA1 (sc-8784-R, Santa Cruz Biotechnology), rabbit polyclonal anti-collagen type X (AB58632, Abcam), rabbit polyclonal anti-ADAMTS5 (sc-28887, Santa Cruz Biotechnology), rabbit polyclonal anti-PARP (sc-7150, Santa Cruz Biotechnology), and rabbit polyclonal anti-GAPDH (sc-25778, Santa Cruz Biotechnology), as a loading control. The bound antibodies were recognized by secondary antibodies conjugated to HRP (NA934V), GE Healthcare). […]
# [3] = test system: ceramide; test: Trachea ceramide immunohistochemistry, MPS VI rats; conditions: 37 weeks of age
# Procedure: Tracheas from 37-week-old normal, untreated MPS VI and treated MPS VI rats were fixed, embedded, sectioned, and prepared as described above. Sections were incubated overnight with primary mouse monoclonal anti-ceramide antibody (MID 15B4, Alexis Corporation) and visualization was accomplished using a fluorescent secondary antibody, donkey anti-goat IgG-Cy-3 (711-165-152, Jackson Laboratory). Slides were visualized and photographed with a confocal laser-scanning microscope (Carl Zeiss 510 Meta).
substance,measurement,setting,value
recombinant human N-acetylgalactosamine-4-sulfatase [ERT],serum RANKL level,[1],significantly reduced
same,serum TNF-α level,[1],significantly reduced
same,ADAMTS5 expression in articular chondrocytes,[2],reduced
same,PARP (apoptosis marker) expression in articular chondrocytes,[2],only reduced by the combined treatment protocol
same,collagen X expression in articular chondrocytes,[2],increased
same,ceramide staining in tracheal epithelial cells,[3],strong ceramide staining
